Measured values published in PMC9918186, “Interaction of Positively Charged Oligopeptides with Blood Plasma Proteins” (International Journal of Molecular Sciences, 2023).

Columns and labels:
[1] = tested on: oxygen-free radical species (ROS); details: previous studies; cited from earlier work
Description: (§1) The subject of this study was oligopeptides with the following sequences: Lys-Dab-Dab-Gly-Orn-Pro-His-Lys-Arg-Lys-Dbt, Lys-Dab-Ala-Gly-Orn-Pro-His-Lys-Arg, and Lys-Dab-Dab-Gly-Orn-Pro-Phe(2-F)-Lys-Arg, which are referred to as L1, L2, and L3, respectively, in the remainder of this work. The investigated oligopeptides consist of an amino group (NH2) in the side chain of unique unnatural amino acids such as Dab (2,4-diaminobutyric acid) and Orn (2,5-diaminopentanoic acid) and standard amino acids such as Lys, and N-terminus and in Dbt in the C-terminal region. Additionally, the presence of the g ...

[2] = previous studies; cited from earlier work
Description: as §1

[3] = molecular target: bovine serum albumin (BSA) (Bos taurus, UniProt P02769); assay: Fluorescence quenching of BSA by peptides L1–3; details: for Stern–Volmer constant Ksv / logKb: BSA 1.0 µM, phosphate buffer; for Stern–Volmer constant Ksv: peptide 0.25–2.0 µM, λex 280 nm; for logKb: double log regression; for quenching rate constant kq: from Ksv with τ0 10^−8 s assumed
Protocol: Fluorescence spectroscopy was carried out to characterize the mechanism of the interaction between three plasma proteins, BSA, AAG, and GGF, with the studied peptides. The fluorescence spectra of protein were collected during titration of L1–L3. The excitation wavelength was set at λ = 280 nm (both Trp and Tyr residues were excited).
To confirm this, the fluorescence data were further analyzed by the Stern–Volmer Equation (1) after correction due to the infer filter effect (2):(1) F0/F=1+kqτ[Q]=1+KSV (2) Fcorr=Fobs10^(Aex+Aem)/2 where F0 and F are the fluorescence intensities (after correction) of the protein and protein in the presence of L1–3, respectively, kq is the quenching rate constant, τ0 the average lifetime, [Q] is the L1–3 concentration, Ksv is the Stern–Volmer constant, and Fcorr, and Fobs are the corrected and observed fluorescence intensities, respectively. Aex and Aem are the absorbance values at excitation and emission wavelengths, respectively. A linear regression fit was used to calculate the value of the Stern–Volmer constant (Ksv). Then, assuming the average lifetime of the fluorophore in the excited state for a biomolecule as 10^−8 s, the quenching rate constant (kq) was computed. For dynamic quenching, the maximum scatters collision quenching rate constant for different quenchers with the biopolymers was reported to be 2 × 10^10 dm^3mol^−1s^−1 [55, 56]. […] Collisional quenching occurs when the excited-state fluorophore is deactivated by contact with some other molecule in solution (by collisions). […] This is a dynamic mechanism of quenching. The quenching constant characterizes the quenching mechanism. The maximum value for collisional quenching is 2 × 10^10 dm^3mol^−1s^−1. […] For further confirmation, measurements were made at, in addition to 297 K, temperatures 303 and 308 K. Experimental data points were fitted and analyzed using Equation (1).
Both for the complexes with BSA and with GGF, the binding constant (Kb) and the binding stoichiometry (n) were calculated. […] The values of Kb and n were calculated from the slope and the intercept of the log [(F0 − F)/F] versus log [Q] plot (Figure 2).
The forces involved in the interaction can be identified by measurement at different temperatures and then by thermodynamic analysis. The signs of the thermodynamic parameters identify the type of interactions. The enthalpy change (ΔH°), the entropic change (ΔS°), and the free energy change (ΔG°) were calculated from Equations (4) and (5):(4) […]=−ΔH^°/RT+ΔS^°/R (5) ΔG^°=ΔH^°−TΔS^°=−RTlnKb where Kb is the binding constant and R is the universal gas constant. To determine the thermodynamic parameters, the van’t Hoff plot was first conducted, i.e., the temperature dependence of the binding constant, according to Equation (4). The Kb values at the three temperatures were fitted by the linear regression method. The values of ΔH and ΔS were calculated from the slope and intercept at the fitted line. Next, the free energy change (ΔG°) was obtained from Equation (5).

[4] = BSA, van't Hoff plot of Kb at 297, 303, 308 K

Sequence of bovine serum albumin (BSA) (P02769 25-607): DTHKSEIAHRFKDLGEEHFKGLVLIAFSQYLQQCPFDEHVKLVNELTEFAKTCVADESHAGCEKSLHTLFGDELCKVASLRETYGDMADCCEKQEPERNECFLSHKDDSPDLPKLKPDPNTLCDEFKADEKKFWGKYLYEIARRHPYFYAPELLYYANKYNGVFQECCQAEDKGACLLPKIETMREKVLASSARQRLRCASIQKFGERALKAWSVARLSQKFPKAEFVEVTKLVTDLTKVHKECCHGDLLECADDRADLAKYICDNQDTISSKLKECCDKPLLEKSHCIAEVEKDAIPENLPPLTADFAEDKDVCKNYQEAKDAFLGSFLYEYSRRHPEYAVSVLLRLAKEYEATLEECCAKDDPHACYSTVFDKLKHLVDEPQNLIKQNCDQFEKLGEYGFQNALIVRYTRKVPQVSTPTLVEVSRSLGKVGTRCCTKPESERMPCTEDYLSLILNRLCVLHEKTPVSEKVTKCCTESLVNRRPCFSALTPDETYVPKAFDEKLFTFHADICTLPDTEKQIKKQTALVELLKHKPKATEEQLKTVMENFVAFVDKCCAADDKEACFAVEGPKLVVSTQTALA

For “Lys-Dab-Dab-Gly-Orn-Pro-His-Lys-Arg-Lys-Dbt [L1]”, the “effect on level of oxygen-free radical species (ROS)” value [1] is listed as “reduce the level of oxygen-free radical species (ROS)”, the anti-inflammatory activity [2] is listed as “possess anti-inflammatory activity” and the “number of binding sites n” value ([3]; 297 K, BSA) is listed as 0.80 ± 0.02. For the same substance, the “Stern–Volmer constant Ksv” value ([3]; 297 K, inner-filter corrected) was 1.55 ± 0.07 × 10^5 dm^3mol^−1, the logKb ([3]; 297 K) was 4.07 ± 0.07 and the “quenching rate constant kq” value ([3]; 297 K) was 1.55 ± 0.07 × 10^13 dm^3mol^−1s^−1. For the same substance, the “number of binding sites n” value ([3]; 303 K, BSA) was 0.80 ± 0.04, the “Stern–Volmer constant Ksv” value ([3]; 303 K) was 1.21 ± 0.03 × 10^5 dm^3mol^−1 and the logKb ([3]; 303 K) was 3.95 ± 0.09. For the same substance, the “quenching rate constant kq” value ([3]; 303 K) was 1.21 ± 0.03 × 10^13 dm^3mol^−1s^−1, the “number of binding sites n” value ([3]; 308 K, BSA) was 0.80 ± 0.02 and the “Stern–Volmer constant Ksv” value ([3]; 308 K) was 0.70 ± 0.06 × 10^5 dm^3mol^−1. The logKb ([3]; 308 K) was 3.72 ± 0.15, the “quenching rate constant kq” value ([3]; 308 K) was 0.70 ± 0.06 × 10^13 dm^3mol^−1s^−1 and the “ΔG°” value ([3]; BSA, from ΔH° − TΔS°) was −23 ± 1 kJmol^−1. The “ΔH°” value [3, 4] was −54 ± 2 kJmol^−1 and the “ΔS°” value [3, 4] was −106 ± 3 Jmol^−1K^−1.
